Results: PMC2737262 (Bioorganic & medicinal chemistry letters, 2009)

Tests used:
[1] = system: MT-2 cells
[2] = system: wild-type HIV-1 IIIB in MT-2 human T-cells; assay: MTT colorimetric assay, survival of HIV-infected MT-2 cells; format: cell-based

Compound	CC50 [1] [µM]	EC50 [2] [µM]
CC[C@H](C)[C@@H](CC(=O)N[C@@H](CCC(=O)O)CC(=O)O)NC(=O)C[C@@H](NC(=O)C[C@H](CCCN)NC(=O)C[C@H](Cc1c[nH]c2ccccc12)NC(=O)C[C@@H](NC(=O)C[C@H](CCC(=O)O)NC(=O)C[C@H](Cc1c[nH]c2ccccc12)NC(=O)C[C@@H](NC(=O)C[C@@H](N)CCCN)C(C)C)C(C)C)C(C)C [βWWI-1]	100 ± 19.6	
CC[C@H](C)[C@@H](CC(=O)N[C@@H](CCC(=O)O)CC(=O)O)NC(=O)C[C@@H](NC(=O)C[C@H](CCCN)NC(=O)C[C@H](Cc1cccc(C(F)(F)F)c1)NC(=O)C[C@@H](NC(=O)C[C@H](CCC(=O)O)NC(=O)C[C@H](Cc1c[nH]c2ccccc12)NC(=O)C[C@@H](NC(=O)C[C@@H](N)CCCN)C(C)C)C(C)C)C(C)C [βWXI-a]	150 ± 3.3	
CC[C@H](C)[C@@H](CC(=O)N[C@@H](CCC(=O)O)CC(=O)O)NC(=O)C[C@@H](NC(=O)C[C@H](CCCN)NC(=O)C[C@H](Cc1cccnc1)NC(=O)C[C@@H](NC(=O)C[C@H](CCC(=O)O)NC(=O)C[C@H](Cc1c[nH]c2ccccc12)NC(=O)C[C@@H](NC(=O)C[C@@H](N)CCCN)C(C)C)C(C)C)C(C)C [βWXI-b]	> 250	
enfuvirtide		0.0375
